Several values for one entry are separate records, joined by “and”; a condition that tells them apart may be missing. Equal entries are not always repeated. Structures can show the parent of a compound that is named as a salt. Where two headings read alike, the source gives them in different places.
Tests used:
[1] = system: mucin immobilized to PC IAM particles; assay: pH and mucin layer thickness dependence of partition ratio on MIC columns (1:2 and 2:1); conditions: for (1:2) k′ (pH 3) / (1:2) k′ (pH 5) / (1:2) k′ (pH 7): column 1:2 mucin to PC IAM, 0.32 μm mucin layer; for (1:2) k′ (pH 3) / (2:1) k′ (pH 3): mobile phase pH 3; for (1:2) k′ (pH 5) / (2:1) k′ (pH 5): mobile phase pH 5; for (1:2) k′ (pH 7) / (2:1) k′ (pH 7): mobile phase pH 7; for (2:1) k′ (pH 3) / (2:1) k′ (pH 5) / (2:1) k′ (pH 7): column 2:1 mucin to PC IAM, 0.36 μm mucin layer
[2] = system: mucin immobilized to IAM.PC.DD2; assay: HPLC on MIC column (2:1 mucin to PC IAM particles): retention time, k′MIC, derived Km and Peff MIC; conditions: for k′MIC / Retention Time: MIC column 2:1 mucin:IAM, MPS pH 7.4; for Retention Time: isocratic 0.3 ml/min; for Dm: membrane diffusion coefficient calculated from molecular weight; for K′MIC: Table 5
Description: [formula] where Dm is the membrane diffusion coefficient of the solute, Km is the membrane equilibrium constant, and L is the membrane thickness (Stein, W., Transport and Diffusion Across Cell Membranes, Academic Press, Orlando, Fla. (1986)). […] Since molecular weight, MW, is proportional to molecular size, Dm may also written as,
[formula] Thus, Dm can be calculated from the molecular weight. Furthermore, Km is calculated by the following equation, Km−(Vm/Vs)k′, [4] where Vm is the volume of the mobile phase, Vs is the internal volume of the stationary phase, and k′ is the partition ratio (Pidgeon and Ong, Chemtech. June, 38-48 (1995)). The partition ratio is determined by the equation, k′−(tr−to)/to, [5] where tr is the retention time of the drug and to is the void volume of the column. Both tr and to can be experimentally determined in order to obtain k′.
Equation 2 can be used to determine Km for a given MIC medium. Both Dm and L are known from the discussion above, and Peff can be calculated for various drugs having known in vivo absorption. For example, a number of drug permeability coefficients, Peff, derived from in vivo experiments are listed in literature. […] See Example 5 below.

[3] = single-pass perfusions, cited from earlier work
[4] = cited from earlier work

(1:2) k′ (pH 3) [1]	(1:2) k′ (pH 5) [1]	(1:2) k′ (pH 7) [1]	(2:1) k′ (pH 3) [1]	(2:1) k′ (pH 5) [1]	(2:1) k′ (pH 7) [1]	k′MIC [2]	Retention Time [2]	Dm [2]	k′MIC (1:2) ([1]; column 1:2, 0.32 μm, pH 7, Table 9)	k′MIC (2:1) ([1]; column 2:1, 0.36 μm, pH 7, Table 9)	δ = log k′MIC − log k′IAM [2]	log k′MIC ([2]; MIC 2:1)	Compound	K′MIC ([2]; MIC 2:1)	Peff Loc-I-Gut (×10^−4 cm/s) ([3]; Table 5)	Peff Loc-I-Gut (×10^−4 cm/s) ([3]; Table 6)	Peff Loc-I-Gut (×10^−4 cm/s) ([3]; Table 9)	% Absorbed ([4]; Table 5) [%]	% Absorbed ([4]; Table 6) [%]
none	30.67	30.67	none	19.00	34.00	–	–	–	–	–	–	–	COc1ccc(Cl)cc1C(=O)NCCc1ccc(S(=O)(=O)NC(=O)NC2CCCCC2)cc1 [glybenclamide]	–	–	–	–	–	–
25.67	29.00	82.33	20.43	27.57	70.67	52.5714	3.8	0.0039	82.3	70.7	–	–	CC(C(=O)O)c1cccc(C(=O)c2ccccc2)c1 (stereo not drawn) [Ketoprofen]	52	–	–	–	–	–
10.67	29.00	12.33	none	13.29	57.33	–	–	–	–	–	–	–	CN(Cc1cnc2nc(N)nc(N)c2n1)c1ccc(C(=O)N[C@@H](CCC(=O)O)C(=O)O)cc1 [amethopterin]	–	–	–	–	–	–
25.67	30.67	39.00	21.86	24.71	19.00	54.7143	3.9	0.0032	–	–	0.59	1.74	CC(=O)CC(c1ccccc1)c1c(O)c2ccccc2oc1=O (stereo not drawn) [Warfarin]	–	–	–	–	–	–
–	–	–	–	–	–	53.2857	3.8	0.0044	–	–	–	–	CC(C)Cc1ccc(C(C)C(=O)O)cc1 (stereo not drawn) [Ibuprofen]	–	–	–	–	–	–
87.33	85.67	24.00	70.43	67.57	22.33	71.8571	5.1	0.0025	–	–	–	–	O=C(O)c1cc(/N=N/c2ccc(S(=O)(=O)Nc3ccccn3)cc2)ccc1O [sulfasalazine]	–	–	–	–	–	–
24.00	24.00	32.33	79.00	90.43	132.33	53.2857	3.8	0.0027	–	–	–	–	CC(CCc1ccccc1)NCC(O)c1ccc(O)c(C(N)=O)c1 (stereo not drawn) [Labetalol]	–	–	–	–	–	–
30.67	44.00	110.67	23.29	34.71	95.67	–	–	–	–	–	–	–	O=C(CCCN1CCC(O)(c2ccc(Cl)cc2)CC1)c1ccc(F)cc1 [haloperidol]	–	–	–	–	–	–
34.00	40.67	22.33	30.43	24.71	20.67	38.5714	2.8	0.0055	–	–	–	–	CC(=O)Oc1ccccc1C(=O)O [acetyl salicylic acid]	–	–	–	–	–	–
64.00	65.67	64.00	50.43	51.86	62.33	38.2857	2.8	0.0066	–	–	–	–	CC(=O)Nc1ccc(O)cc1 [acetaminophen]	–	–	–	–	–	–

The next lines start with the compound.

Compound	(1:2) k′ (pH 3) [1]	(1:2) k′ (pH 5) [1]	(1:2) k′ (pH 7) [1]	(2:1) k′ (pH 3) [1]	(2:1) k′ (pH 5) [1]	(2:1) k′ (pH 7) [1]	k′MIC [2]	Retention Time [2]	Dm [2]	k′MIC (1:2) ([1]; column 1:2, 0.32 μm, pH 7, Table 9)	k′MIC (2:1) ([1]; column 2:1, 0.36 μm, pH 7, Table 9)	δ = log k′MIC − log k′IAM [2]	log k′MIC ([2]; MIC 2:1)	K′MIC ([2]; MIC 2:1)	Peff Loc-I-Gut (×10^−4 cm/s) ([3]; Table 5)	Peff Loc-I-Gut (×10^−4 cm/s) ([3]; Table 6)	Peff Loc-I-Gut (×10^−4 cm/s) ([3]; Table 9)	% Absorbed ([4]; Table 5) [%]	% Absorbed ([4]; Table 6) [%]
Nc1nc2c(ncn2COCCO)c(=O)[nH]1 [Acyclovir]	25.67	15.67	25.67	20.43	20.43	24.00	33.5714	2.4	0.0044	–	–	–	–	–	–	–	–	–	–
CN/C(=N/CCSCc1nc[nH]c1C)NC#N [Cimetidine]	25.67	29.00	44.00	17.57	23.29	35.67	–	–	0.0039 and 0.0040	–	–	–	–	–	–	–	–	–	–
C=C[C@H]1C[N@@]2CC[C@H]1C[C@@H]2[C@@H](O)c1ccnc2ccc(OC)cc12 [quinidine, HCl]	–	–	–	–	–	–	70.4286	5.0	0.0026	–	–	–	–	–	–	–	–	–	–
CC(C)(C)NC[C@H](O)COc1nsnc1N1CCOCC1 [Timolol]	–	–	–	–	–	–	36.1429	2.6	0.0023	–	–	–	–	–	–	–	–	–	–
COc1ccc(CCN(C)CCCC(C#N)(c2ccc(OC)c(OC)c2)C(C)C)cc1OC (stereo not drawn) [Verapamil]	–	–	–	–	–	–	71.8571	5.1	0.0020	–	–	–	–	71.86	–	–	–	–	–
OC[C@@H](O)[C@@H](O)[C@H](O)[C@H](O)CO [Mannitol]	–	–	–	–	–	–	33.4286	2.4	0.0055	–	–	–	–	–	–	–	–	–	–
C=CCc1ccccc1OCC(O)CNC(C)C (stereo not drawn) [Alprenolol]	54.00	64.00	42.33	43.29	49.00	82.33	46.1429	3.3	0.0035	–	–	–	–	–	–	–	–	–	–
COc1ccc2cc([C@H](C)C(=O)O)ccc2c1 [Naproxen]	–	–	–	–	–	–	–	–	–	–	–	–	–	–	8.0 ×10^−4 cm/s	8.0 ×10^−4 cm/s	8.0 ×10^−4 cm/s	100	100
NCC(=O)O [glycine]	none	none	none	none	none	none	–	–	–	–	–	–	–	–	–	–	–	–	–
CC(C)C[C@H](N)C(=O)O [leucine]	none	none	none	none	none	none	–	–	–	–	–	–	–	–	–	–	–	–	–
CC(COc1ccccc1)N(CCCl)Cc1ccccc1 (stereo not drawn) [Phenoxybenzamine HCl]	20.67	29.00	29.00	20.43	17.57	15.67	–	–	–	–	–	–	–	–	–	–	–	–	–
Cn1c(=O)c2c(ncn2C)n(C)c1=O [Caffeine]	44.00	44.00	45.67	34.71	34.71	39.00	37.5714	2.7	0.0051	–	–	–	–	–	–	–	–	–	–
